Measurements reported in publication PMC4963390, “PL3 Amidase, a Tailor-made Lysin Constructed by Domain Shuﬄing with Potent Killing Activity against Pneumococci and Related Species” (Frontiers in Microbiology, 2016).

Target: T1, PL3
T1 construct: gene pal
Details: read-out: apparent half-dissociation constant; 20 mM sodium phosphate, reducing conditions (pH 6.8 in the other assays); 20 °C; higher-affinity sites of a two-sigmoid fit (midpoint value); lower-affinity sites not listed

C[N+](C)(C)CCO [choline]
Kd: 60 ± 9 µM
